The text below walks through data of US8697877B2, “Oxyindole derivatives with motilin receptor agonistic activity” (RaQualia Pharma Inc., priority 2009, dated 2014).

The structures appear in SMILES notation. Read-outs that look alike come from different tables or passages of the source.

The target in the experiment is T1, human motilin receptor (GPR38) (Homo sapiens, UniProt O43193).
T1 construct: expressed in transfected cells; host or cells: CHO-K1
Description: GPR38 (Motilin Receptor) Functional Assay, NFAT-beta-lactamase reporter in CHO-K1 cells. It is filed as cell-based. Here is the method:
The potencies and efficacies of the compounds of this invention for GPR38 can be determined by reporter assay performed on the human cloned receptor as described herein.
GPR38 (Motilin Receptor) Functional Assay
A CHO-K1 cell line stably transfected NFAT-beta-lactamase reporter and human motilin receptor gene was used. The cells were cultured in culture medium (Dulbecco's modified eagle medium containing 10% fetal bovine serum, 1 mM sodium pyruvate, 0.1 mM MEM nonessential amino acids, 25 mM HEPES buffer, 50 units/mL penicillin, 50 microg/mL streptomycin, 100 microg/mL zeocin, and 500 microg/mL G418). The cells were harvested with 0.05% trypsin EDTA and centrifuged. The cell pellets were resuspended in the culture medium and plated into a black/clear bottom 384-well plate at a density of 8000 cells per well, then incubated at 37° C. with 5% CO2 for over night (about 20 hours). On the day of assay, the culture medium was aspirated and 20 microL of assay medium (Dulbecco's modified eagle medium containing 100 units/mL penicillin and 100 microg/mL streptomycin) was added to each well, then the cell plates were placed in incubator at 37° C. with 5% CO2 for 1.5 hours. Compounds were prepared in 100% DMSO and these were diluted to 5× of final concentration with assay buffer (Hanks balanced salt solution, 20 mM HEPES, and 0.1% BSA), then dispensed into 384-well plate (5 microL/well). After incubation at 37° C. with 5% CO2 for 4.5 hours, CCF4-AM loading solution (Invitrogen Corp.) was added to each well. After incubation for 2 hours at room temperature, fluorescence intensities were measured by using plate reader FDSS (Hamamatsu Photonics K. K.) with excitation 400 nm, emission 465 nm/540 nm. Agonistic activity (EC50) was calculated from the sigmoidal dose-response curve using GraphPad Prism software (GraphPad Software, Inc.).

T1 sequence (O43193 whole entry): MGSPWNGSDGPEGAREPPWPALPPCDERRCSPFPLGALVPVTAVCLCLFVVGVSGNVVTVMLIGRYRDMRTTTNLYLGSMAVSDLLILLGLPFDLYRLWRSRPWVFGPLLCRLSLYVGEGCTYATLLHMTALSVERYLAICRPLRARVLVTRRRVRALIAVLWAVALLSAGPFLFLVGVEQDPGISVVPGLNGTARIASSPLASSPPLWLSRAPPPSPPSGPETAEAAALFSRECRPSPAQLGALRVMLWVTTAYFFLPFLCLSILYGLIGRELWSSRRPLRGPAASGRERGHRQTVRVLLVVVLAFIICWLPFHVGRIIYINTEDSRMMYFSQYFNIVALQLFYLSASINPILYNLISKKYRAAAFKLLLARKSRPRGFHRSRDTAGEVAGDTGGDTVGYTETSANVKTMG

Take `CN[C@@H]1CC[C@H](C(=O)N[C@@H](Cc2ccccc2F)C(=O)N2CCC(N3C(=O)C(C)(C)c4ccccc43)CC2)C1` [Example 32, (1S,3R)-N-((S)-1-(4-(3,3-dimethyl-2-oxoindolin-1-yl)piperidin-1-yl)-3-(2-fluorophenyl)-1-oxopropan-2-yl)-3-(methylamino)cyclopentane-carboxamide]: the EC50 is at most 10 nM.

As to `CN[C@@H]1CC[C@H](C(=O)N[C@@H](CC(C)C)C(=O)N2CCC(N3C(=O)C(C)(C)c4ccccc43)CC2)C1` [Example 33, (1S,3R)-N-((S)-1-(4-(3,3-dimethyl-2-oxoindolin-1-yl)piperidin-1-yl)-4-methyl-1-oxopentan-2-yl)-3-(methylamino) cyclopentanecarboxamide], the EC50 is at most 10 nM.

As for `CN[C@@H]1CC[C@H](C(=O)N[C@@H](Cc2c[nH]c3ccccc23)C(=O)N2CCC(N3C(=O)C(C)(C)c4ccccc43)CC2)C1` [Example 34, (1S,3R)-N-((S)-1-(4-(3,3-dimethyl-2-oxoindolin-1-yl)piperidin-1-yl)-3-(1H-indol-3-yl)-1-oxopropan-2-yl)-3-(methylamino)cyclopentane-carboxamide], the EC50 was at most 10 nM.

`CN[C@@H]1CC[C@H](C(=O)N[C@@H](Cc2cccc(C(F)(F)F)c2)C(=O)N2CCC(N3C(=O)C(C)(C)c4ccccc43)CC2)C1` [Example 35, (1S,3R)-N-((S)-1-(4-(3,3-dimethyl-2-oxoindolin-1-yl)piperidin-1-yl)-1-oxo-3-(3-(trifluoromethyl)phenyl)propan-2-yl)-3-(methylamino)cyclo-pentanecarboxamide]: the EC50 was at most 10 nM.

Take `CN[C@@H]1CC[C@H](C(=O)N[C@@H](Cc2ccc(C(F)(F)F)cc2)C(=O)N2CCC(N3C(=O)C(C)(C)c4ccccc43)CC2)C1` [Example 36, (1S,3R)-N-((S)-1-(4-(3,3-dimethyl-2-oxoindolin-1-yl)piperidin-1-yl)-1-oxo-3-(4-(trifluoromethyl)phenyl)propan-2-yl)-3-(methylamino)cyclo-pentanecarboxamide]: the EC50 was at most 10 nM.

Compound `CN[C@@H]1CC[C@H](C(=O)N[C@@H](Cc2ccc(OC)cc2)C(=O)N2CCC(N3C(=O)C(C)(C)c4ccccc43)CC2)C1` [Example 37, (1S,3R)-N-((S)-1-(4-(3,3-dimethyl-2-oxoindolin-1-yl)piperidin-1-yl)-3-(4-methoxyphenyl)-1-oxopropan-2-yl)-3-(methylamino)cyclopentanecarboxamide] had an EC50 of at most 10 nM.

`CN[C@@H]1CC[C@H](C(=O)N[C@@H](COc2ccccc2)C(=O)N2CCC(N3C(=O)C(C)(C)c4ccccc43)CC2)C1` [Example 38, (1S,3R)-N-((S)-1-(4-(3,3-dimethyl-2-oxoindolin-1-yl)piperidin-1-yl)-1-oxo-3-phenoxypropan-2-yl)-3-(methyl-amino)cyclopentanecarboxamide]: the EC50 was at most 10 nM.

In turn, `CN[C@@H]1CC[C@H](C(=O)N[C@@H](COc2ccccc2Cl)C(=O)N2CCC(N3C(=O)C(C)(C)c4ccccc43)CC2)C1` [Example 39, (1S,3R)-N-((S)-3-(2-chlorophenoxy)-1-(4-(3,3-dimethyl-2-oxoindolin-1-yl)piperidin-1-yl)-1-oxopropan-2-yl)-3-(methylamino)cyclopentanecarboxamide] showed an EC50 of at most 10 nM.

Take `CN[C@@H]1CC[C@H](C(=O)N[C@H](CC(=O)N2CCC(N3C(=O)C(C)(C)c4ccccc43)CC2)Cc2ccccc2)C1` [Example 43, (1S,3R)-N-((S)-4-(4-(3,3-dimethyl-2-oxoindolin-1-yl)piperidin-1-yl)-4-oxo-1-phenylbutan-2-yl)-3-(methylamino) cyclopentanecarboxamide]: the EC50 is at most 10 nM.

With `CC1(C)C(=O)N(C2CCN(C(=O)[C@H](CCc3ccccc3)NC(=O)[C@@H]3CCCNC3)CC2)c2ccc(F)cc21` [Example 44, (R)—N—((S)-1-(4-(5-fluoro-3,3-dimethyl-2-oxoindolin-1-yl)piperidin-1-yl)-1-oxo-4-phenylbutan-2-yl)piperidine-3-carboxamide], the concentration giving a half-maximal response (EC50) is at most 10 nM.

Regarding `CN[C@@H]1CC[C@H](C(=O)N[C@@H](CCc2ccccc2)C(=O)N2CCC(N3C(=O)C(C)(C)c4cc(F)ccc43)CC2)C1` [Example 45, (1S,3R)-N-((S)-1-(4-(5-fluoro-3,3-dimethyl-2-oxoindolin-1-yl)piperidin-1-yl)-1-oxo-4-phenylbutan-2-yl)-3-(methylamino)cyclopentane-carboxamide], the EC50 is at most 10 nM.

As to `CNC(C)(C)CC(=O)N[C@@H](CCc1ccccc1)C(=O)N1CCC(N2C(=O)C(C)(C)c3cc(F)ccc32)CC1` [Example 46, (S)-N-(1-(4-(5-fluoro-3,3-dimethyl-2-oxoindolin-1-yl)piperidin-1-yl)-1-oxo-4-phenylbutan-2-yl)-3-methyl-3-(methylamino)butanamide], the EC50 was at most 10 nM.

`CN[C@H]1CCN(C(=O)N[C@@H](CCc2ccccc2)C(=O)N2CCC(N3C(=O)C(C)(C)c4ccccc43)CC2)C1` [Example 47, (S)—N—((S)-1-(4-(3,3-dimethyl-2-oxoindolin-1-yl)piperidin-1-yl)-1-oxo-4-phenylbutan-2-yl)-3-(methylamino)pyrrolidine-1-carboxamide] had an EC50 of at most 10 nM. Where the note is “ED50 (nM), Table 15, functional activity toward GPR38 (motilin receptor), (S) versus (R) amino acid linker”, this compound gave an EC50 of 0.98 nM.

For `CC1(C)C(=O)N(C2CCN(C(=O)[C@H](CCc3ccccc3)NC(=O)NC[C@@H]3CCCN3)CC2)c2ccccc21` [Example 48, 1-((S)-1-(4-(3,3-dimethyl-2-oxo-indolin-1-yl)piperidin-1-yl)-1-oxo-4-phenylbutan-2-yl)-3-((S)-pyrrolidin-2-ylmethyl)urea], the EC50 is at most 10 nM.

Consider `CC1(C)C(=O)N(C2CCN(C(=O)[C@H](CCc3ccccc3)NC(=O)N[C@@H]3CCCNC3)CC2)c2ccccc21` [Example 49, 1-((S)-1-(4-(3,3-dimethyl-2-oxo-indolin-1-yl)piperidin-1-yl)-1-oxo-4-phenylbutan-2-yl)-3-((R)-piperidin-3-yl)urea], for which the EC50 was at most 10 nM.

`CN(C[C@@H]1CCCN1)C(=O)N[C@@H](CCc1ccccc1)C(=O)N1CCC(N2C(=O)C(C)(C)c3ccccc32)CC1` [Example 50, 3-((S)-1-(4-(3,3-dimethyl-2-oxo-indolin-1-yl)piperidin-1-yl)-1-oxo-4-phenylbutan-2-yl)-1-methyl-1-((S)-pyrrolidin-2-ylmethyl)urea] had an EC50 of at most 10 nM.

The compound `CC1(C)C(=O)N(C2CCN(C(=O)[C@H](CCc3ccccc3)NC(=O)NC[C@H]3CCCN3)CC2)c2ccccc21` [Example 51, 1-((S)-1-(4-(3,3-dimethyl-2-oxo-indolin-1-yl)piperidin-1-yl)-1-oxo-4-phenylbutan-2-yl)-3-((R)-pyrrolidin-2-ylmethyl)urea] came in with an EC50 of at most 10 nM.

`CC1(C)C(=O)N(C2CCN(C(=O)[C@H](CCc3ccccc3)NC(=O)N[C@@H]3CCNC3)CC2)c2ccccc21` [Example 52, 1-((S)-1-(4-(3,3-dimethyl-2-oxo-indolin-1-yl)piperidin-1-yl)-1-oxo-4-phenylbutan-2-yl)-3-((R)-pyrrolidin-3-yl)urea]: the EC50 was at most 10 nM.

In turn, `CC1(C)C(=O)N(C2CCN(C(=O)[C@H](CCc3ccccc3)NC(=O)NC[C@@H]3CCNC3)CC2)c2ccccc21` [Example 53, 1-((S)-1-(4-(3,3-dimethyl-2-oxo-indolin-1-yl)piperidin-1-yl)-1-oxo-4-phenylbutan-2-yl)-3-((R)-pyrrolidin-3-ylmethyl)urea] gave an EC50 of at most 10 nM.

In turn, `C[C@@H]1CN(C(=O)N[C@@H](CCc2ccccc2)C(=O)N2CCC(N3C(=O)C(C)(C)c4ccccc43)CC2)CCN1` [Example 54, (R)-N-((S)-1-(4-(3,3-dimethyl-2-oxoindolin-1-yl)piperidin-1-yl)-1-oxo-4-phenylbutan-2-yl)-3-methyl-piperazine-1-carboxamide] showed an EC50 of at most 10 nM.

With `CCC1(NC(=O)N[C@@H](CCc2ccccc2)C(=O)N2CCC(N3C(=O)C(C)(C)c4ccccc43)CC2)CCNCC1` [Example 55, (S)-1-(1-(4-(3,3-dimethyl-2-oxo-indolin-1-yl)piperidin-1-yl)-1-oxo-4-phenylbutan-2-yl)-3-(4-ethylpiperidin-4-yl)urea], the concentration for a half-maximal effect (EC50) was at most 10 nM.

For `CC1(NC(=O)N[C@@H](CCc2ccccc2)C(=O)N2CCC(N3C(=O)C(C)(C)c4ccccc43)CC2)CCNCC1` [Example 56, (S)-1-(1-(4-(3,3-dimethyl-2-oxo-indolin-1-yl)piperidin-1-yl)-1-oxo-4-phenylbutan-2-yl)-3-(4-methyl-piperidin-4-yl)urea], the EC50 was at most 10 nM.

Turning to `CC1(C)C(=O)N(C2CCN(C(=O)[C@H](CCc3ccccc3)NC(=O)N[C@H]3CCNC3)CC2)c2ccccc21` [Example 57, 1-((S)-1-(4-(3,3-dimethyl-2-oxo-indolin-1-yl)piperidin-1-yl)-1-oxo-4-phenylbutan-2-yl)-3-((S)-pyrrolidin-3-yl)urea], the EC50 is at most 10 nM.

As usually defined, the EC50 is the concentration needed to bring the measured effect to its halfway point.
